Data: PubChem BioAssay AID248 (DTP/NCI, 2004)
Inconclusive results and toxic doses are left out. No stated cut-off is given here; in the data, active means T/C of 150% or more; inactive means T/C below 125%.

Tested on: L1210 leukemia ip in BDF1 mice, survival T/C
Experiment: NCI In Vivo Anticancer Drug Screen. Data for tumor model L1210 Leukemia (intraperitoneal) in B6D2F1 (BDF1) mice
Details: endpoint: mean survival time, higher = longer survival
Summary of the method: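 Value reflects the ratio of survival in compound-treated mice to survival in vehicle-treated controls, with both groups carrying the same transplanted tumor.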

[1] = dose: 75.0 mg/kg/injection, schedule: Q01DX001 (ip), vehicle: saline
[2] = dose: 150.0 mg/kg/injection, schedule: Q01DX001 (ip), vehicle: saline
[3] = dose: 50.0 mg/kg/injection, schedule: Q01DX009 (ip), vehicle: Klucel (hydroxypropylcellulose) (HPC)
[4] = dose: 100.0 mg/kg/injection, schedule: Q01DX009 (ip), vehicle: Klucel (hydroxypropylcellulose) (HPC)
[5] = dose: 200.0 mg/kg/injection, schedule: Q01DX009 (ip), vehicle: Klucel (hydroxypropylcellulose) (HPC)
[6] = dose: 100.0 mg/kg/injection, schedule: Q01DX001 (ip), vehicle: carboxymethylcellulose (CMC)
[7] = dose: 100.0 mg/kg/injection, schedule: Q01DX001 (ip), vehicle: saline
[8] = dose: 200.0 mg/kg/injection, schedule: Q01DX001 (ip), vehicle: saline
[9] = dose: 400.0 mg/kg/injection, schedule: Q01DX001 (ip), vehicle: saline

Measured: T/C

O=[N+]([O-])c1ccc2c(c1)-c1ccccc1/C2=C1\c2ccccc2-c2cc([N+](=O)[O-])ccc21
inactive: dose: 100.0 mg/kg/injection, schedule: Q01DX005 (ip), vehicle: Klucel (hydroxypropylcellulose) (HPC) 105 % of control | dose: 100.0 mg/kg/injection, schedule: Q04DX002 (ip), vehicle: Klucel (hydroxypropylcellulose) (HPC) 90 % of control | dose: 200.0 mg/kg/injection, schedule: Q01DX005 (ip), vehicle: Klucel (hydroxypropylcellulose) (HPC) 91 % of control | dose: 200.0 mg/kg/injection, schedule: Q04DX002 (ip), vehicle: Klucel (hydroxypropylcellulose) (HPC) 104 % of control | dose: 400.0 mg/kg/injection, schedule: Q01DX005 (ip), vehicle: Klucel (hydroxypropylcellulose) (HPC) 91 % of control | dose: 400.0 mg/kg/injection, schedule: Q04DX002 (ip), vehicle: Klucel (hydroxypropylcellulose) (HPC) 96 % of control

OC1C2(CCCCC2)CNC12C=CCCC2 (stereo not given)
inactive: [1] 98 % of control | [2] 97 % of control

OCc1c2ccccc2cc2ccccc12
inactive: dose: 100.0 mg/kg/injection, schedule: Q01DX001 (ip), vehicle: saline with Tween-80 93 % of control | dose: 200.0 mg/kg/injection, schedule: Q01DX001 (ip), vehicle: saline with Tween-80 87 % of control | dose: 400.0 mg/kg/injection, schedule: Q01DX001 (ip), vehicle: saline with Tween-80 93 % of control

C/C(N=Nc1ccccc1)=N\Nc1cccc(C(F)(F)F)c1
inactive: [3] 107 % of control | [4] 102 % of control | [5] 110 % of control | dose: 400.0 mg/kg/injection, schedule: Q01DX009 (ip), vehicle: Klucel (hydroxypropylcellulose) (HPC) 102 % of control

COc1cccc2c1OC(COS(C)(=O)=O)CO2 (stereo not given) (tested in a mixture with another compound)
inactive: [6] 95 % of control | dose: 200.0 mg/kg/injection, schedule: Q01DX001 (ip), vehicle: carboxymethylcellulose (CMC) 95 % of control | dose: 400.0 mg/kg/injection, schedule: Q01DX001 (ip), vehicle: carboxymethylcellulose (CMC) 97 % of control

O=[N+]([O-])c1ccc(N=C(Cl)N(c2ccccc2)c2ccccc2)cc1
inactive: [7] 101 % of control | [8] 109 % of control | [9] 109 % of control

CCOP(=O)(OCC)C1=C(P(=O)(OCC)OCC)CCCC1
inactive: dose: 9.5 mg/kg/injection, schedule: Q01DX001 (ip), vehicle: other 103 % of control | dose: 19.0 mg/kg/injection, schedule: Q01DX001 (ip), vehicle: other 105 % of control | dose: 38.0 mg/kg/injection, schedule: Q01DX001 (ip), vehicle: other 95 % of control

CCCCCC(C)NC(=O)N(CCCl)N=O (stereo not given) (tested in a mixture with another compound)
active: dose: 27.0 mg/kg/injection, schedule: Q01DX001 (ip), vehicle: saline with Tween-80 169 % of control | dose: 40.0 mg/kg/injection, schedule: Q01DX001 (ip), vehicle: saline with Tween-80 151 % of control | dose: 60.0 mg/kg/injection, schedule: Q01DX001 (ip), vehicle: saline with Tween-80 200 % of control | dose: 90.0 mg/kg/injection, schedule: Q01DX001 (ip), vehicle: saline with Tween-80 210 % of control
inactive: dose: 12.0 mg/kg/injection, schedule: Q01DX001 (ip), vehicle: saline with Tween-80 109 % of control | dose: 18.0 mg/kg/injection, schedule: Q01DX001 (ip), vehicle: saline with Tween-80 116 % of control | dose: 133.0 mg/kg/injection, schedule: Q01DX001 (ip), vehicle: saline with Tween-80 88 % of control

Nc1cc(Nc2cccc(Cl)c2)nc(N)n1
inactive: [6] 94 % of control

CC1(C)N=C(N)N=C(N)N1c1ccc(CCc2ccccc2)c(Cl)c1
inactive: dose: 3.13 mg/kg/injection, schedule: Q01DX009 (ip), vehicle: Klucel (hydroxypropylcellulose) (HPC) 100 % of control | dose: 6.25 mg/kg/injection, schedule: Q01DX009 (ip), vehicle: Klucel (hydroxypropylcellulose) (HPC) 104 % of control | dose: 12.5 mg/kg/injection, schedule: Q01DX009 (ip), vehicle: Klucel (hydroxypropylcellulose) (HPC) 104 % of control | dose: 12.5 mg/kg/injection, schedule: Q04DX003 (ip), vehicle: Klucel (hydroxypropylcellulose) (HPC) 93 % of control | dose: 25.0 mg/kg/injection, schedule: Q01DX009 (ip), vehicle: Klucel (hydroxypropylcellulose) (HPC) 107 % of control | dose: 25.0 mg/kg/injection, schedule: Q04DX003 (ip), vehicle: Klucel (hydroxypropylcellulose) (HPC) 93 % of control | dose: 50.0 mg/kg/injection, schedule: Q04DX003 (ip), vehicle: Klucel (hydroxypropylcellulose) (HPC) 94 % of control

N#CC(CC(=O)c1ccccc1)c1ccccc1 (stereo not given)
inactive: dose: 100.0 mg/kg/injection, schedule: Q01DX009 (ip), vehicle: saline with Tween-80 97 % of control | dose: 200.0 mg/kg/injection, schedule: Q01DX009 (ip), vehicle: saline with Tween-80 100 % of control | dose: 400.0 mg/kg/injection, schedule: Q01DX009 (ip), vehicle: saline with Tween-80 107 % of control

CCN(CC)CCN(C)CC(=O)Nc1cccc(Cl)c1C
inactive: dose: 25.0 mg/kg/injection, schedule: Q01DX009 (ip), vehicle: saline 106 % of control | dose: 50.0 mg/kg/injection, schedule: Q01DX009 (ip), vehicle: saline 93 % of control | [1] 101 % of control | dose: 100.0 mg/kg/injection, schedule: Q01DX009 (ip), vehicle: saline 98 % of control | [2] 102 % of control | dose: 150.0 mg/kg/injection, schedule: Q01DX009 (ip), vehicle: saline 100 % of control

CCSC(=O)N=Nc1ccc(O)cc1
inactive: dose: 50.0 mg/kg/injection, schedule: Q01DX001 (ip), vehicle: saline 103 % of control | [7] 100 % of control | [8] 94 % of control | [9] 111 % of control

Cc1cc(=O)[nH]c(N/N=C2/CCCCC2C)n1 (stereo not given)
inactive: [3] 100 % of control | [4] 95 % of control | dose: 100.0 mg/kg/injection, schedule: Q04DX003 (ip), vehicle: Klucel (hydroxypropylcellulose) (HPC) 100 % of control | [5] 100 % of control | dose: 200.0 mg/kg/injection, schedule: Q04DX003 (ip), vehicle: Klucel (hydroxypropylcellulose) (HPC) 97 % of control

Oc1ccccc1C=Nc1cc(Cl)ccc1O
inactive: [7] 97 % of control | [8] 95 % of control | [9] 103 % of control

C=C/C=C\N(CC)CC
inactive: dose: 6.25 mg/kg/injection, schedule: Q01DX009 (ip), vehicle: water 98 % of control | dose: 12.5 mg/kg/injection, schedule: Q01DX009 (ip), vehicle: water 97 % of control | dose: 25.0 mg/kg/injection, schedule: Q01DX009 (ip), vehicle: water 104 % of control | dose: 25.0 mg/kg/injection, schedule: Q04DX003 (ip), vehicle: water 95 % of control | dose: 50.0 mg/kg/injection, schedule: Q01DX009 (ip), vehicle: water 98 % of control | dose: 50.0 mg/kg/injection, schedule: Q04DX003 (ip), vehicle: water 88 % of control | dose: 100.0 mg/kg/injection, schedule: Q04DX003 (ip), vehicle: water 100 % of control

O=C(C[n+]1cccc(OC(=O)c2ccccc2)c1)c1ccc(-c2ccccc2)cc1
inactive: dose: 75.0 mg/kg/injection, schedule: Q04DX003 (ip), vehicle: Klucel (hydroxypropylcellulose) (HPC) 100 % of control | dose: 100.0 mg/kg/injection, schedule: Q01DX001 (ip), vehicle: Klucel (hydroxypropylcellulose) (HPC) 100 % of control | dose: 150.0 mg/kg/injection, schedule: Q04DX003 (ip), vehicle: Klucel (hydroxypropylcellulose) (HPC) 91 % of control | dose: 200.0 mg/kg/injection, schedule: Q01DX001 (ip), vehicle: Klucel (hydroxypropylcellulose) (HPC) 97 % of control | dose: 300.0 mg/kg/injection, schedule: Q04DX003 (ip), vehicle: Klucel (hydroxypropylcellulose) (HPC) 96 % of control | dose: 400.0 mg/kg/injection, schedule: Q01DX001 (ip), vehicle: Klucel (hydroxypropylcellulose) (HPC) 101 % of control

COc1ccc(CCN=C(N)CCl)cc1
inactive: dose: 100.0 mg/kg/injection, schedule: Q04DX002 (ip), vehicle: saline 95 % of control | dose: 200.0 mg/kg/injection, schedule: Q04DX002 (ip), vehicle: saline 106 % of control

CC(CC(C)O)=NCCN=C(C)CC(C)O.[Ni] (stereo not given)
inactive: dose: 6.25 mg/kg/injection, schedule: Q01DX009 (ip), vehicle: saline with Tween-80 108 % of control | dose: 12.5 mg/kg/injection, schedule: Q01DX009 (ip), vehicle: saline with Tween-80 89 % of control

O=C(NNc1c(Cl)cc(Cl)cc1Cl)C(O)C(O)C(O)C(O)CO (stereo not given)
inactive: dose: 100.0 mg/kg/injection, schedule: Q04DX003 (ip), vehicle: saline 91 % of control | dose: 200.0 mg/kg/injection, schedule: Q04DX003 (ip), vehicle: saline 87 % of control | dose: 400.0 mg/kg/injection, schedule: Q04DX003 (ip), vehicle: saline 87 % of control
